# In article PMC7617104 (Biochemical Journal, 2024):
# Several values for one entry are separate records, joined by “and”; a condition that tells them apart may be missing. Identical values can stand only once. Like-named read-outs stand apart in the source and are kept apart here.
# Columns and labels:
# PI3Kα^WT [1] = target: T1, PI3Kα^WT (Homo sapiens, UniProt P42336); assay: BLI membrane binding assay (immobilised liposomes); conditions: for effect on P2pY-activated PI3Kα^WT membrane interaction (BLI wavelength shift): 1 µM PI3Kα^WT, 300 s, GSK2126458 4 µM, PIK-75 20 µM, 6 4 µM, 7 10 µM, GDC0032 10 µM, AS252424 10 µM, AMP-PNP 2 mM with 5 mM Mg2+; for Bmax (binding capacity) of PI3Kα^WT membrane interaction in presence of inhibitor: pY activated, inhibitor:protein 4:1, Mean ± SEM
# T1 construct: using full length PI3Kα^WT and PI3Kα^H1047R up to 1 μM; made in house; host or cells: Sf9 insect cells (baculovirus)
# Procedure: BLI is a label-free dip-and-read method that uses wavelength changes in reflected incidental white light to report on changes in thickness of the lipid vesicles immobilised on a biosensor from protein binding.
# (§1) BLI experiments were carried out with a BLItz® System (ForteBIO) using aminopropylsilane (APS) biosensors. The APS biosensors (ForteBIO #18-5045) were hydrated for 15–20 min in either Tris or HEPES liposome buffer. The program option used was Advanced Kinetics. Liposome membrane preparation was performed using a 0.5 mg/ml liposome solution of PIP2: PS: PE: PC: C: S (Avanti polar lipids) in the mass percentages of 5: 20: 45: 15: 10: 5. Liposomes without PIP2 were prepared as PS: PE: PC: C: S in the percentage of […]. Liposomes without PS were prepared as PIP2: PE: PC: C: S in the percentage of 5: 65: 15: 10: 5. […] P2pY and inhibitor, or DMSO only were also added to achieve a final protein concentration of 200 μg/ml, a pY concentration of 10 μM, and total DMSO content of 3%. The mixture was incubated at room temperature for 10 min prior to the protein association experiments. The membrane coated biosensors were first dipped in Buffer D containing 3% DMSO for 30 s to set an initial baseline, and transferred to the protein in the presence or absence of inhibitor. Protein binding was followed for 300 s, and then the biosensors were dipped in Buffer D with 3% DMSO again for 300 s for protein dissociation. […] PI3Kα^M1043I used 0.125, 0.25, 0.5, 1 and 1.57 µM. The results of liposome loading and protein association were then analysed and graphed using GraphPad Prism 6.
# Target sequence in this assay (P42336 whole entry): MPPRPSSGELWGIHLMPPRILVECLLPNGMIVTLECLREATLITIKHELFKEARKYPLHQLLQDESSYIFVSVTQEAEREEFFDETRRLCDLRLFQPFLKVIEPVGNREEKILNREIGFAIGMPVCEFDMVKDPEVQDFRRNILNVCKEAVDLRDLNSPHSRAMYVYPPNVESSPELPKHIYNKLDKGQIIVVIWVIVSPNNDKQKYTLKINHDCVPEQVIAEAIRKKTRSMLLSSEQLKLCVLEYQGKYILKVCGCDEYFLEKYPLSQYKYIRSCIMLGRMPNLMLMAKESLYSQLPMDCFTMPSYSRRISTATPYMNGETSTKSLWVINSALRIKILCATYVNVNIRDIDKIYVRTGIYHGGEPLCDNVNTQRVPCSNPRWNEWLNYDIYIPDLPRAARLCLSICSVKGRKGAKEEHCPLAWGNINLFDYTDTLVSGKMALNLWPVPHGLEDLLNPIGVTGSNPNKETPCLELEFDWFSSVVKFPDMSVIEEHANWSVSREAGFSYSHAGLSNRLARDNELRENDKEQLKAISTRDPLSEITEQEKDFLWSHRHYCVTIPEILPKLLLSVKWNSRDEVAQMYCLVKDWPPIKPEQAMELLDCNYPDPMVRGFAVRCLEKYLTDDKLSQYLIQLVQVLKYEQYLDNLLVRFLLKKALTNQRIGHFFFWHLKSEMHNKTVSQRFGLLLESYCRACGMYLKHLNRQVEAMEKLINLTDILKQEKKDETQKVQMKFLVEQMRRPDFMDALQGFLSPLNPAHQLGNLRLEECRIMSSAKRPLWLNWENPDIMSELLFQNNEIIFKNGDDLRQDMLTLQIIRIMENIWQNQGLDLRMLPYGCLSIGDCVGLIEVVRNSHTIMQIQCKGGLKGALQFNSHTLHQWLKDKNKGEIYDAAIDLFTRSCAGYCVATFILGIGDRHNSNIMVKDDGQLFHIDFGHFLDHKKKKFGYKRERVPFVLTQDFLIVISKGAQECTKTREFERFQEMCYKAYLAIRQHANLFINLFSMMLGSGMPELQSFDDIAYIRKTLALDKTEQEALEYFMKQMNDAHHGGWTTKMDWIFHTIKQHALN
# Target sequence in this assay (P27986 2-724 partner): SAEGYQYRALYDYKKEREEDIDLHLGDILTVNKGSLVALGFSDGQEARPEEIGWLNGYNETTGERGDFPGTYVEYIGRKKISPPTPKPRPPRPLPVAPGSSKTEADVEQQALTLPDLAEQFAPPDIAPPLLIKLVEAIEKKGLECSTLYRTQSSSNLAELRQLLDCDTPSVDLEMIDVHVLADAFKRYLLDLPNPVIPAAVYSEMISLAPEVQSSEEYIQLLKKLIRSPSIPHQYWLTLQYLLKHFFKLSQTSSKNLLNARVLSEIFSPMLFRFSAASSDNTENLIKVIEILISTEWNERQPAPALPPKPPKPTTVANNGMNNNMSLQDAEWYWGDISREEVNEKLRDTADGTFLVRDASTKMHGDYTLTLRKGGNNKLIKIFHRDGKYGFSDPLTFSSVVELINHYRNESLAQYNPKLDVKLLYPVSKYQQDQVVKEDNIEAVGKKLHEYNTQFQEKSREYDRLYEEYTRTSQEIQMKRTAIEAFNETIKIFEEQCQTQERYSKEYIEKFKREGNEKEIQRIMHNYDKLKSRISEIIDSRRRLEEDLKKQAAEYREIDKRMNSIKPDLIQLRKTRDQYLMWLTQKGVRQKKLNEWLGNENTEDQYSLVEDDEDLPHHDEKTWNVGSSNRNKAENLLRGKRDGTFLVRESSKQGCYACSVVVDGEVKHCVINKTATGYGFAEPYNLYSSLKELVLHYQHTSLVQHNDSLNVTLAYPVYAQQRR
# PI3Kβ^WT (p110β/p85α) = target: T2, PI3Kβ^WT (p110β/p85α) (Homo sapiens, UniProt P42338); assay: PI3K HTRF lipid kinase IC50 determination; assay type: biochemical
# T2 construct: made in house; host or cells: Sf9 insect cells (baculovirus)
# T2 sequence (P42338 whole entry, species assumed): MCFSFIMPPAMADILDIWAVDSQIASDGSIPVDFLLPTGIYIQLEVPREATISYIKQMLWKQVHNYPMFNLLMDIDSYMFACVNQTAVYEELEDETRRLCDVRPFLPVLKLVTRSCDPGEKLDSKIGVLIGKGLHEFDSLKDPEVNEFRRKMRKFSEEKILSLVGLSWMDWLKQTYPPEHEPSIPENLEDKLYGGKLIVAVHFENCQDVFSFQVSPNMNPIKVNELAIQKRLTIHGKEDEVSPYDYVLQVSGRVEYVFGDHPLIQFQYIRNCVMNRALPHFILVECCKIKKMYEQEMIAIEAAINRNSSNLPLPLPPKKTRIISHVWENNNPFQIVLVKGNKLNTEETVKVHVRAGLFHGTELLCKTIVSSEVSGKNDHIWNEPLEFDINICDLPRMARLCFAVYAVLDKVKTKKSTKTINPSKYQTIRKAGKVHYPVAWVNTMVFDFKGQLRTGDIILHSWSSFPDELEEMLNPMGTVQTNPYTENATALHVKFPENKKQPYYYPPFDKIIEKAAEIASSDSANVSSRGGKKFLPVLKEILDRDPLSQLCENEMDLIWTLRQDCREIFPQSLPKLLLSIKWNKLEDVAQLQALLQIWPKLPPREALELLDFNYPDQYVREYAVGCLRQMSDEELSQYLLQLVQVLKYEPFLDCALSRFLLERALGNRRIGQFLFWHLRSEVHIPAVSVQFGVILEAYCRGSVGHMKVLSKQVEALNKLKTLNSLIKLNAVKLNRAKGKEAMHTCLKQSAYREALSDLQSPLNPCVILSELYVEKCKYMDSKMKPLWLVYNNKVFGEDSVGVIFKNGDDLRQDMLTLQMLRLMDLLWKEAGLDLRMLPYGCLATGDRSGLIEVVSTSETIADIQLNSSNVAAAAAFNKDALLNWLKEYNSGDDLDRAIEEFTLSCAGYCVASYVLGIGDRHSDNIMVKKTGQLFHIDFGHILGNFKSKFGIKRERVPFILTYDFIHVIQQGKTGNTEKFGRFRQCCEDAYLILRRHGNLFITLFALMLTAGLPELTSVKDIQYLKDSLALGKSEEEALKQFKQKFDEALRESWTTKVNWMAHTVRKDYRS
# T2 sequence (P27986 whole entry partner, species assumed): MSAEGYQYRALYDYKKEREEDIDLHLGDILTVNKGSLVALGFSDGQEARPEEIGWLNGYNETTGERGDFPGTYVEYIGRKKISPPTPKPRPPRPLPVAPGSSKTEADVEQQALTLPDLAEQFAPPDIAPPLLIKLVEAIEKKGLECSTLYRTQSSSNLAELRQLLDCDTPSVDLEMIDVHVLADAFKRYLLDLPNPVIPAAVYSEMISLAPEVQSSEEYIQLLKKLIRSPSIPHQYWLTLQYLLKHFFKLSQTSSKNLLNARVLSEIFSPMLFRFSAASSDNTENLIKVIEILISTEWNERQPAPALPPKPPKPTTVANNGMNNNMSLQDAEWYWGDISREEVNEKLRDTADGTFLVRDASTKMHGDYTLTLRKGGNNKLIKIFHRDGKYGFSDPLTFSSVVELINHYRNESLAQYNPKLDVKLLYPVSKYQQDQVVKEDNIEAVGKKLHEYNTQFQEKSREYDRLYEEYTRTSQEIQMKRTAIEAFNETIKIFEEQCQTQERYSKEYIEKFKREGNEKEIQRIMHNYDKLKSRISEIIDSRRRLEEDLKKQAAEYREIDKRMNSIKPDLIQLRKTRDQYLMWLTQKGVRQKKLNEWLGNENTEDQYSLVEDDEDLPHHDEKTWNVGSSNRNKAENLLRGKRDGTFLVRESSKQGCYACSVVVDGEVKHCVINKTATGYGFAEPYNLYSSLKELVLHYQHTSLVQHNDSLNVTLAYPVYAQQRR
# Procedure: (§2) IC50 values were determined using the PI3K homogenous time-resolved fluorescence assay (Merck Millipore, #33-016) following the manufacturer's instructions as previously described. […] Data was graphed and analysed with Graphpad Prism 6, nonlinear regression with log(inhibitor) vs. response and constraints set at 0% and 100%.
# (§3) (1 picture or pasted object on this page, not shown here)
# (§4) Enzymes were used at PI3KαWT 40 ng/ml, PI3KβWT as either 400 ng/ml or 300 ng/ml,
# (§5) and PI3K δWT was 65 ng/ml. Plates were read on a PHERAStar HTS microplate reader
# p110γ [2] = target: T3, p110γ (Homo sapiens, UniProt P48736); assay: PI3K HTRF lipid kinase IC50 determination; assay type: biochemical; conditions: Table S1, this study; a = N=2 individual data shown, b = N=1; read-out: IC50 p110γ WT
# T3 construct: made in house; host or cells: Sf9 insect cells (baculovirus)
# T3 sequence (P48736 whole entry, species assumed): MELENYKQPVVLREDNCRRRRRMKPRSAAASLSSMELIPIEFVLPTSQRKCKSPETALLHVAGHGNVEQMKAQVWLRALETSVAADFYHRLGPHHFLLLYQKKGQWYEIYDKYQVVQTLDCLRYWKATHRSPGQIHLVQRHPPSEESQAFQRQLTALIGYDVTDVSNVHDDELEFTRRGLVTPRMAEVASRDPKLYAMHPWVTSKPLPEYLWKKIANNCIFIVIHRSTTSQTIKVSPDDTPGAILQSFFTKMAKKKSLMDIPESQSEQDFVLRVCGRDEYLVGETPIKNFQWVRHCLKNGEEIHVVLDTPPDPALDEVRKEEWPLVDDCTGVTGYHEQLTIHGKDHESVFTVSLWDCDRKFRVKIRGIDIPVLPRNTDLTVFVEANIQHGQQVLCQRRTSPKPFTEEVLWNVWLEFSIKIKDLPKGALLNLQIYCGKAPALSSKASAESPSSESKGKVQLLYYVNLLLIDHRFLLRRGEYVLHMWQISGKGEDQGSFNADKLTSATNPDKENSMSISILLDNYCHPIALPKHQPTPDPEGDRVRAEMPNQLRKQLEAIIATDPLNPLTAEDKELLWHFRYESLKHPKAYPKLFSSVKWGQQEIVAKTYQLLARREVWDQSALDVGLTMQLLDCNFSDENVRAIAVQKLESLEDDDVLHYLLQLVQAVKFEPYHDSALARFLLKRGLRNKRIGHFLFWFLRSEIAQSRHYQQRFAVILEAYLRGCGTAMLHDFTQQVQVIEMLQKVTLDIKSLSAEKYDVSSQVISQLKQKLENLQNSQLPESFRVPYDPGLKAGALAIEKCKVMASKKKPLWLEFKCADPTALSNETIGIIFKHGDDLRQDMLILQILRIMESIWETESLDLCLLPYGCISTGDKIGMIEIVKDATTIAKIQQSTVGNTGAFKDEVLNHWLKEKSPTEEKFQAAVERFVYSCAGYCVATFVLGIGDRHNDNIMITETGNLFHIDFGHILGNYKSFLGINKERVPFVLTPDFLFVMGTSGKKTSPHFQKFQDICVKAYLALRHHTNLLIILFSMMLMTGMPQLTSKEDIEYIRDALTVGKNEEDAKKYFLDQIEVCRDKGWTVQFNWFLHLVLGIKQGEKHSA
# Procedure: as §2, §3
# PI3Kα^WT [3] = target: T1, PI3Kα^WT; assay: FRET membrane binding assay (dansyl-PS liposomes); conditions: P1pY-activated 0.5 μM PI3Kα^WT; inhibitor 31.25 nM to 2 μM
# Target sequence in this assay (P42336 whole entry): as the sequence (P42336 whole entry) above
# Target sequence in this assay (P27986 whole entry partner): as the sequence (P27986 whole entry partner, species assumed) above
# Procedure: The FRET-based assay directly monitors the interaction by measuring energy transfer from tryptophan residues in PI3Kα to dansyl-labelled phosphatidylserine (PS) lipids embedded within the synthetic membrane.
# Liposomes were prepared with PIP2: phosphatidylserine (PS): phosphatidlyethanol (PE): phosphatidylcholine (PC): Cholesterol (C): Sphingomyelin (S): Dansyl PS (Avanti polar lipids) in the percentage of 5: 20: 35: 15: 10: 5: 10. Inhibitors were solubilised in 100% DMSO, and were diluted to 10% DMSO with Buffer C (30 mM HEPES pH 7.5, 50 mM NaCl), before being serially diluted to desired concentrations in 30 mM HEPES pH 7.5, 50 mM NaCl with 10% DMSO. […] Compounds were used at 5-fold the final concentration and 2 μl was added to 5 μl of enzyme in a 384-well plate, the plate was sealed and the mixture was allowed to equilibrate at room temperature for 10 min with shaking at 450 rpm. Liposomes were then added to the mixture to give a final liposome concentration of 50 μg/ml and a final reaction volume of 10 μl, and the plate was incubated at room temperature for 10 min with shaking at 450 rpm. […] The FRET signal was measured as I-I0 (intensity at 520 nm for protein and liposome solution — intensity at 520 nm for liposome only solution). […] The compound only I-I0 was then subtracted from the I-I0 of the protein-compound complex. […] Data were then graphed and analysed with GraphPad Prism 6.
# PI3Kα^H1047R = target: T4, PI3Kα^H1047R (Homo sapiens, UniProt P42336, H1047R); assay: BLI membrane binding assay (immobilised liposomes); conditions: pY activated, inhibitor:protein 4:1, Mean ± SEM
# T4 construct: Full length PI3Kα^WT or PI3Kα^H1047R was diluted with Buffer D; made in house; host or cells: Sf9 insect cells (baculovirus)
# T4 sequence (P42336 whole entry H1047R): as the sequence (P42336 whole entry) above, with H1047R counted along it
# T4 sequence (P27986 whole entry partner): as the sequence (P27986 whole entry partner, species assumed) above
# Procedure: as §1
# PI3Kα^E545K = PI3Kα^E545K (Homo sapiens, UniProt P42336, E545K); assay: BLI membrane binding assay (immobilised liposomes); conditions: 4 µM inhibitor, 1 µM enzyme, +pY, 300 s
# Procedure: (§6) Figure 6. […] The data are shown as Mean ± SD; PI3Kα^WT +pY n = 7; PI3Kα^WT +pY + GSK n = 5; PI3Kα^WT −pY n = 4; PI3Kα^WT −pY + GSK n = 3. (B) Effect of GSK on the BLI wavelength shift (λ) on membrane binding by PI3Kα^WT, the PI3Kα^E545K oncogenic mutant, class IA PI3Kβ^WT and class IA PI3Kδ^WT enzymes. In all experiments inhibitors were tested at 4 µM with 1 µM of the different enzymes and membrane binding was followed by BLI for 300 s.
# as §1
# PI3Kβ^WT = target: T5, PI3Kβ^WT (Homo sapiens, UniProt P42338); assay: BLI membrane binding assay (immobilised liposomes); conditions: 4 µM inhibitor, 1 µM enzyme, +pY, 300 s
# T5 construct: made in house; host or cells: Sf9 insect cells (baculovirus)
# Procedure: as §6, §1
# PI3Kδ^WT = target: T6, PI3Kδ^WT (Homo sapiens, UniProt O00329); assay: BLI membrane binding assay (immobilised liposomes); conditions: 4 µM inhibitor, 1 µM enzyme, +pY, 300 s
# T6 construct: made in house; host or cells: Sf9 insect cells (baculovirus)
# Procedure: as §6, §1
# PI3Kα C420R mutant = PI3Kα C420R mutant (Homo sapiens, UniProt P42336, C420R); assay: BLI membrane binding assay, concentration response; conditions: P2pY activated; protein to GSK2126458 ratio 1:4
# Procedure: as §1, with “6. […]” for “6.”
# (§7) membrane binding parameters. (A) Concentration response curves for PI3Kα oncogenic mutant proteins. Data is shown as the Mean ± SEM (number of biosensors for each data point is n≥3). A one site-specific binding model was used to fit the data. The […]
# as §3
# PI3Kα G1049R mutant = PI3Kα G1049R mutant (Homo sapiens, UniProt P42336, G1049R); assay: BLI membrane binding assay, concentration response; conditions: P2pY activated; protein to GSK2126458 ratio 1:4
# Procedure: as §1, with “6. […]” for “6.”
# as §7, §3
# PI3Kα G106V mutant = PI3Kα G106V mutant (Homo sapiens, UniProt P42336, G106V); assay: BLI membrane binding assay, concentration response; conditions: P2pY activated; protein to GSK2126458 ratio 1:4
# Procedure: as §1, with “6. […]” for “6.”
# as §7, §3
# PI3Kα G118D mutant = PI3Kα G118D mutant (Homo sapiens, UniProt P42336, G118D); assay: BLI membrane binding assay, concentration response; conditions: P2pY activated; protein to GSK2126458 ratio 1:4
# Procedure: as §1, with “6. […]” for “6.”
# as §7, §3
# PI3Kα M1043I mutant = PI3Kα M1043I mutant (Homo sapiens, UniProt P42336, M1043I); assay: BLI membrane binding assay, concentration response; conditions: P2pY activated; protein to GSK2126458 ratio 1:4
# Procedure: as §1, with “6. […]” for “6.”
# as §7, §3
# PI3Kα N345K mutant = PI3Kα N345K mutant (Homo sapiens, UniProt P42336, N345K); assay: BLI membrane binding assay, concentration response; conditions: P2pY activated; protein to GSK2126458 ratio 1:4
# PI3Kα N345K mutant, sequence (P42336 whole entry N345K): as the sequence (P42336 whole entry) above, with N345K counted along it
# PI3Kα N345K mutant, sequence (P27986 whole entry partner): as the sequence (P27986 whole entry partner, species assumed) above
# Procedure: as §1, with “6. […]” for “6.”
# as §7, §3
# p110γ [4] = target: T3, p110γ; design: method as in earlier work; conditions: Table S1, rows marked #; ref S1; read-out: IC50 p110γ WT; cited from earlier work
# PI3Kα^WT (p110α/p85α) = target: T7, PI3Kα^WT (p110α/p85α) (Homo sapiens, UniProt P42336); assay: PI3K homogenous time-resolved fluorescence (HTRF) lipid kinase IC50 determination; assay type: biochemical; conditions: HTRF assay using PIP2 as substrate; Mean ± SD, n=2; enzyme 40 ng/ml; read-out: IC50 PI3Kα (Table S3)
# T7 construct: made in house; host or cells: Sf9 insect cells (baculovirus)
# T7 sequence (P42336 whole entry): as the sequence (P42336 whole entry) above
# T7 sequence (P27986 whole entry partner): as the sequence (P27986 whole entry partner, species assumed) above
# Procedure: as §2, §3, §4, §5
# PI3Kδ^WT (p110δ/p85α) = target: T8, PI3Kδ^WT (p110δ/p85α) (Homo sapiens, UniProt O00329); assay: PI3K HTRF lipid kinase IC50 determination; assay type: biochemical; conditions: HTRF assay using PIP2 as substrate; Mean ± SD, n=2; enzyme 65 ng/ml; read-out: IC50 PI3K (third column of Table S3, probably PI3Kδ)
# T8 construct: made in house; host or cells: Sf9 insect cells (baculovirus)
# Procedure: as §2, §3, §4, §5
smiles,measurement,setting,value
Nc1ncnc2c1ncn2[C@@H]1O[C@H](COP(=O)(O)OP(=O)(O)NP(=O)(O)O)[C@@H](O)[C@H]1O [AMP-PNP],effect on P2pY-activated PI3Kα^WT membrane interaction (BLI wavelength shift),PI3Kα^WT [1],could promote the enzymes membrane interaction
O=C1NC(=O)/C(=C/c2ccc(-c3ccc(F)cc3O)o2)S1 [AS252424],effect on P2pY-activated PI3Kα^WT membrane interaction (BLI wavelength shift),PI3Kα^WT [1],some evidence of positive modulation
Cc1nc(-c2cn3c(n2)-c2ccc(-c4cnn(C(C)(C)C(N)=O)c4)cc2OCC3)n(C(C)C)n1 [GDC0032],IC50,"PI3Kβ^WT (p110β/p85α); Table S1, this study, a = N=2 individual data shown, b = N=1, read-out: IC50 PI3Kβ WT",0.064 µM and 0.113 µM
same,IC50,p110γ [2],0.0046 µM and 0.0032 µM
COc1ncc(-c2ccc3nccc(-c4ccnnc4)c3c2)cc1NS(=O)(=O)c1ccc(F)cc1F [GSK2126458],maximum reduction in FRET signal,PI3Kα^WT [3],85%
same,Bmax (binding capacity) of PI3Kα^WT membrane interaction in presence of inhibitor,PI3Kα^WT [1]; liposomes 0% PIP2 + 20% PS,1.5 ± 0.1 λ nm
same,Bmax (binding capacity) of PI3Kα^WT membrane interaction in presence of inhibitor,PI3Kα^WT [1]; liposomes 5% PIP2 + 20% PS,1.9 ± 0.1 λ nm
same,Bmax (binding capacity) of PI3Kα^H1047R membrane interaction in presence of inhibitor,PI3Kα^H1047R; liposomes 0% PIP2 + 20% PS,4.3 ± 0.3 λ nm
same,Bmax (binding capacity) of PI3Kα^H1047R membrane interaction in presence of inhibitor,PI3Kα^H1047R; liposomes 5% PIP2 + 0% PS,4.6 ± 0.3 λ nm
same,Bmax (binding capacity) of PI3Kα^H1047R membrane interaction in presence of inhibitor,PI3Kα^H1047R; liposomes 5% PIP2 + 20% PS,5.0 ± 0.2 λ nm
same,effect on PI3Kα^E545K membrane interaction (BLI),PI3Kα^E545K,insensitive to regulation by GSK2126458
same,effect on PI3Kβ^WT membrane interaction (BLI),PI3Kβ^WT,insensitive to GSK2126458
same,effect on PI3Kδ^WT membrane interaction (BLI),PI3Kδ^WT,insensitive to GSK2126458
same,effect on C420R membrane interaction (BLI),PI3Kα C420R mutant,"sensitive to GSK2126458, with effects on the membrane interaction capacity"
same,effect on G1049R membrane interaction capacity (BLI),PI3Kα G1049R mutant,also sensitive to GSK2126458
same,effect on G106V membrane interaction capacity (BLI),PI3Kα G106V mutant,largest decrease in capacity of all those tested
same,effect on G118D membrane interaction (BLI),PI3Kα G118D mutant,changes in both capacity and affinity
same,effect on M1043I membrane interaction capacity (BLI),PI3Kα M1043I mutant,also sensitive to GSK2126458
same,effect on N345K membrane interaction (BLI),PI3Kα N345K mutant,"sensitive to GSK2126458, with effects on the membrane interaction capacity"
Cc1ccc([N+](=O)[O-])cc1S(=O)(=O)N(C)/N=C/c1cnc2ccc(Br)cn12 [PIK-75],IC50,p110γ [4],0.043 ± 0.021 µM
"FC(F)c1nc2ccccc2n1-c1nc(N2CCOCC2)nc(N2CCOCC2)n1 [ZSTK474, 2-(difluoromethyl)-1-[4,6-di(4-morpholinyl)-1,3,5-triazin-2-yl]-1H-benzimidazole]",maximum reduction in FRET signal,PI3Kα^WT [3],50%
COc1ncc(-c2ccc3cccc(-c4ccnnc4)c3c2)cc1NS(=O)(=O)c1ccc(F)cc1F [compound 6],IC50,PI3Kα^WT (p110α/p85α),0.46 ± 0.17 µM
COc1ncc(-c2ccc(-c3cnc4c(c3)CN(C)C4=O)s2)cc1NS(=O)(=O)c1ccc(F)cc1F [compound 7],IC50,PI3Kα^WT (p110α/p85α),16.8 ± 9.1 µM
same,IC50,"PI3Kβ^WT (p110β/p85α); HTRF assay using PIP2 as substrate, Mean ± SD, n=2, enzyme 400 or 300 ng/ml, read-out: IC50 PI3K (second column of Table S3, probably PI3Kβ)",242 ± 308 µM
same,IC50,PI3Kδ^WT (p110δ/p85α),8.6 ± 2.1 µM
same,effect on P2pY-activated PI3Kα^WT membrane interaction (BLI wavelength shift),PI3Kα^WT [1],retained the ability to decrease
